In PubChem BioAssay (NCI):
“And” between values parts separate entries of the source, which are not always exact repeats. Equal values may be shown once.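 All cell lines were grown in 96-well plates and treated with compound for 48 hours. GI50: concentration for 50% inhibition of growth. The concentration for full growth arrest is given as TGI.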

Legend:
Experiment in all cases: growth of human tumour cells (NCI), 48 h
[1] = tested on: RPMI-8226 leukemia
[2] = tested on: MALME-3M melanoma
[3] = tested on: U251 CNS
[4] = tested on: SF-268 CNS
[5] = tested on: A498 renal
[6] = tested on: HCT-15 colon
[7] = tested on: MDA-MB-231 breast
[8] = tested on: ACHN renal
[9] = tested on: MCF7 breast
[10] = tested on: UACC-62 melanoma

Row | SMILES | TGI [1] | TGI [2] | TGI [3] | TGI [4] | TGI [5] | TGI [6] | TGI [7] | TGI [8] | TGI [9] | TGI [10] | GI50 [1] | GI50 [2] | GI50 [3] | GI50 [5] | GI50 [6] | GI50 [7] | GI50 [8] | GI50 [10]
1 | CC1CN=C(c2cccc(OCc3ccc(COc4cccc(C5=NCC(C)N5)c4)cc3)c2)N1 (configuration not stated) | 45.4 µM | > 100 µM | > 100 µM | > 100 µM | > 100 µM | > 100 µM | > 100 µM | > 100 µM | > 100 µM | > 100 µM | – | – | – | – | – | – | – | –
2 | COc1ccc(C2CC(c3c(C)nn(-c4ccccc4)c3-c3ccc(C)cc3O)=NN2c2ccccc2)cc1 (configuration not stated) | > 100 µM | > 100 µM | > 100 µM | > 100 µM | > 100 µM | > 100 µM | > 100 µM | > 67.4 µM | > 100 µM | > 100 µM | – | – | – | – | – | – | – | –
3 | O=c1c(Cc2ccc(Cl)cc2)nnc2sc(-c3ccc([N+](=O)[O-])cc3)nn12 | 89.9 µM | 55.5 µM | > 100 µM | > 100 µM | 63.6 µM | 29.3 µM | 66.3 µM | 87.3 µM | 53 µM | 34 µM | – | – | – | – | – | – | – | –
4 | O=C1c2ccccc2NC2C(O)c3ccccc3N12 (configuration not stated) | 54.3 µM | > 100 µM | > 100 µM | > 100 µM | 37.9 µM | > 100 µM | > 100 µM | > 100 µM | > 100 µM | 56.8 µM | – | – | – | – | – | – | – | –
5 | O=c1oc2ccccc2cc1-c1nc2ccc([N+](=O)[O-])cc2o1 | > 100 µM | > 100 µM | > 100 µM | > 100 µM | > 100 µM | > 100 µM | > 100 µM | 80.9 µM | > 100 µM | > 100 µM | – | – | – | – | – | – | – | –
6 | O=C1/C(=C/c2cccc(Oc3ccccc3)c2)N=C(c2ccccc2)N1c1nc2ccc(Sc3ccccc3)cc2[nH]1 | 56.5 µM | > 100 µM | > 100 µM | > 100 µM | 81.2 µM | > 100 µM | 49.9 µM | > 100 µM | > 100 µM | 74.9 µM | – | – | – | – | – | – | – | –
7 | Oc1ccc2ccccc2c1-c1nnc(CCCCCCCCc2nnc(-c3c(O)ccc4ccccc34)o2)o1 | 25 µM and > 100 µM | 8.33 µM and 58.2 µM | 25 µM and > 63.8 µM | > 100 µM | 25 µM and 41 µM | 25 µM and > 100 µM | – | 25 µM and > 55.3 µM | > 37.2 µM | 25 µM and > 100 µM | 3.56 µM | 8.98 µM | 17.2 µM | 14.2 µM | 0.563 µM | 0.583 µM | 1.28 µM | 2.54 µM
8 | Oc1ccc(-c2c3c(nc4c2CCc2ccc(Br)cc2-4)-c2cc(Br)ccc2CC3)cc1 | 77.3 µM | 50.4 µM | 34.2 µM | 39.9 µM | 48.6 µM | 35.5 µM | 34.5 µM | 45.2 µM | 43.1 µM | 44.2 µM | – | – | – | – | – | – | – | –
9 | CN(C)c1ccc(/C=C(\NC(=O)c2ccccc2)C(=O)Nc2ccccc2C(=O)NN2C(=O)CSC2c2ccc(N(C)C)cc2)cc1 (configuration not stated) | > 100 µM | > 100 µM | > 100 µM | > 100 µM | > 100 µM | > 100 µM | > 100 µM | > 100 µM | > 100 µM | > 100 µM | – | – | – | – | – | – | – | –
10 | Cc1[nH]c(=O)nc(N/N=C/c2ccc(Cl)c(Cl)c2)c1C(=O)Nc1ccc(Cl)c(Cl)c1 | > 100 µM | > 44.5 µM | 18.5 µM | 40.7 µM | 7.92 µM | > 42.9 µM | 15.2 µM | > 53.1 µM | 57 µM | 41.2 µM | – | – | – | – | – | – | – | –
11 | O=S1(=O)NNC(=NCc2ccc(F)cc2)c2ccccc21 | > 78.8 µM | > 100 µM | > 83.4 µM | > 100 µM | > 100 µM | > 100 µM | > 100 µM | > 100 µM | > 100 µM | > 100 µM | – | – | – | – | – | – | – | –
12 | Cc1cc(S(=O)(=O)Nc2n[nH]c(Nc3ccccc3)n2)c(S)cc1Cl | > 10 µM | > 10 µM | > 10 µM | > 10 µM | > 10 µM | > 10 µM | > 10 µM | > 10 µM | > 10 µM | > 10 µM | – | – | – | – | – | – | – | –
13 | COc1ccc(/C=N/Nc2[nH]c(=S)nc3[nH]ncc23)cc1 | > 100 µM | 99.4 µM | 40.7 µM | > 100 µM | > 100 µM | > 100 µM | > 100 µM | > 100 µM | > 100 µM | > 100 µM | – | – | – | – | – | – | – | –
14 | C=C[C@]1(C)CC[C@]2(C)C(CC[C@@]3(C)C2C[C@H](O)[C@H](O)[C@@]3(C)O)C1 (some centres not stated) | > 100 µM | > 100 µM | > 100 µM | > 100 µM | > 100 µM | > 100 µM | > 100 µM | > 100 µM | > 100 µM | > 100 µM | – | – | – | – | – | – | – | –
15 | N#Cc1c(N)c(-c2ccc(Cl)cc2)c(F)c2ccccc12 | > 100 µM | > 100 µM | > 100 µM | > 100 µM | > 100 µM | > 100 µM | > 100 µM | > 100 µM | > 100 µM | > 100 µM | – | – | – | – | – | – | – | –
16 | CC1=NN(c2ccc(C)cc2)C2(C1)SCC(=O)N2c1nc2ccccc2s1 (configuration not stated) | 50.1 µM | > 100 µM | 65.5 µM | > 100 µM | 70.6 µM | > 100 µM | 41.4 µM | > 100 µM | 48.8 µM | 45.6 µM | – | – | – | – | – | – | – | –
